Converted amounts (≈) assume the structure as drawn. Where two headings read alike, the source gives them in different places.
Legend:
Solubility pH 7.4 = format: physicochemical; conditions: aqueous buffer
[1] = test system: Asexual parasites of P. falciparum strain 3D7; assay: In vitro drug activity on asexual parasites (SYBR Green assay); format: cell-based; conditions: Plasmodium falciparum, P. falciparum 3D7 asexual stage, 72 h, read-out: Asexual EC50
Method: Cell culture. Asexual parasites of P. falciparum strain 3D7 were cultured as described previously [Trager W, et al., Journal of Parasitology 2005, 91: 484-486]. Stage III-V gametocytes were selected and enriched with 3-day treatment with 50 mM N-acetylglucosamine (NAG) and the following Percoll density gradient centrifugation after gametocyte production [Tanaka T Q, et al., Molecular and Biochemical Parasitology, 2011, 177: 160-163]. Gametocytes of HB3 and Dd2 strains were produced and then set up for assay in a similar process. HepG2 cells (ATCC, cat. no. 77400) were cultured in 175-cm^2 tissue culture flasks with 30 ml growth medium at 37° C. in a 5% CO2 humidified atmosphere. Growth medium was made with Dulbecco's Modified Eagle Medium with 10% fetal bovine serum (FBS). Growth medium was replaced every other day and cells were passed at 75% confluence.
Asexual parasites of P. falciparum strain 3D7 were cultured as described previously (Trager, W. et al., J. Parasitol. 2005, 91(3): 484-486). Drug activity on asexual stage parasites was tested using a SYBR Green assay as described previously (Eastman, R. T. et al., Antimicrob. Agents Chemother. 2013, 57(1): 425-435; Smilkstein, M. et al., Antimicrob. Agents Chemother. 2004, 48(5): 1803-1806). Briefly, parasites were diluted to 0.5% parasitemia in complete culture medium with 2% hematocrit and drugs diluted in DMSO (<0.5%) and were loaded into a 96-well plate (200 μl/well). No drug and RBC alone wells were included as positive and background controls, respectively, and each testing condition was examined in duplicated. After 72 h incubation under the standard culture condition and a freeze-thaw lysis step at −80° C. and room temperature, 100 μl/well of lysis buffer containing SYBR Green I was added to the parasite culture and incubated for 30 min at room temperature. The fluorescence of each well was measured at 520 nm following excitation at 490 nm using a FLUOstar Optima™ microplate reader (BMG Labtech).
Compounds were screened against gametocytes and asexual parasites as described in Examples 1 and 2.

[2] = Microsomal stability (rat); format: in vitro ADME; conditions: rat microsomes
[3] = Table 1, read-out: Microsomal Stability (rat) T1/2
[4] = Table 3, read-out: Microsomal Stability (rat) T1/2

Structure (SMILES)	solubility (Solubility pH 7.4; Table 1)	EC50 ([1]; Table 1)	half-life [2, 3]	other results
Cc1cc(C#N)cc(-n2c(=N)n(C)c3cnc4ccc(-c5ccc(Cl)cc5)cc4c32)c1 [Compound 71, 3-(8-(4-chlorophenyl)-2-imino-3-methyl-2,3-dihydro-1H-imidazo[4,5-c]quinolin-1-yl)-5-methylbenzonitrile]	< 1 µg/mL	0.511 µM	> 30 min	–
Cn1c(=N)n(-c2cncnc2)c2c3cc(-c4ccc(Cl)c(OC(F)(F)F)c4)ccc3ncc21	–	–	–	solubility (Solubility pH 7.4; Table 3): < 1 µg/mL; EC50 ([1]; Table 3): 0.315 µM; half-life [2, 4]: > 30 min
Cn1c(=N)n(-c2cc(C#N)ccc2OC(F)(F)F)c2c3cc(-c4ccc(Cl)cc4)ccc3ncc21 [Compound 54, 3-(8-(4-chlorophenyl)-2-imino-3-methyl-2,3-dihydro-1H-imidazo[4,5-c]quinolin-1-yl)-4-(trifluoromethoxy)benzonitrile]	< 1 µg/mL	1.42 µM	> 30 min	–
Cn1c(=N)n(C2CCN(C3CCOCC3)CC2)c2c3cc(-c4ccc(Cl)cc4)ccc3ncc21 [Compound 57, 8-(4-chlorophenyl)-3-methyl-1-(1-(tetrahydro-2H-pyran-4-yl)piperidin-4-yl)-1,3-dihydro-2H-imidazo[4,5-c]quinolin-2-imine]	> 47 µg/mL	2.52 µM	> 30 min	–
Cc1cc(N2CC(C)OC(C)C2)c(C#N)cc1-n1c(=N)n(C)c2cnc3ccc(-c4ccc(Cl)cc4)cc3c21 (stereo not drawn) [Compound 117, 5-(8-(4-chlorophenyl)-2-imino-3-methyl-2,3-dihydro-1H-imidazo[4,5-c]quinolin-1-yl)-2-(2,6-dimethylmorpholino)-4-methylbenzonitrile]	< 1 µg/mL	0.373 µM	> 30 min	–
N=c1ccc2cnc3ccc(-c4ccc(Cl)cc4)cc3c2n1-c1ccc(C(=O)NC2CC2)cc1	–	–	–	solubility (Solubility pH 7.4; Table 2): > 69 µg/mL; EC50 ([1]; Table 2): 0.0857 µM; half-life ([2]; Table 2, read-out: Microsomal Stability (rat) T1/2): > 30 min
CCOc1ccc(C#N)cc1-n1c(=N)n(C)c2cnc3ccc(-c4ccc(Cl)cc4)cc3c21 [Compound 19, 3-(8-(4-chlorophenyl)-2-imino-3-methyl-2,3-dihydro-1H-imidazo[4,5-c]quinolin-1-yl)-4-ethoxybenzonitrile]	26 µg/mL (≈ 57.3 µM)	0.778 µM	> 30 min	–
Cn1c(=N)n(-c2nccc(O)n2)c2c3cc(-c4ccc(Cl)cc4)ccc3ncc21	–	–	–	solubility (Solubility pH 7.4; Table 3): < 1 µg/mL; EC50 ([1]; Table 3): 43.1 µM; half-life [2, 4]: > 30 min
Cn1c(=N)n([C@H]2CC[C@H](N3CCNCC3)CC2)c2c3cc(-c4ccc(Cl)cc4)ccc3ncc21 [Compound 96, 8-(4-chlorophenyl)-3-methyl-1-((1r,4r)-4-(piperazin-1-yl)cyclohexyl)-1,3-dihydro-2H-imidazo[4,5-c]quinolin-2-imine]	> 47 µg/mL	2.63 µM	> 30 min	–
Cn1c(=N)n(-c2ccnc(N)n2)c2c3cc(-c4cccc(F)c4)ccc3ncc21	–	–	–	solubility (Solubility pH 7.4; Table 3): 20.9 µg/mL (≈ 54.2 µM); EC50 ([1]; Table 3): 0.523 µM; half-life [2, 4]: > 30 min
Cc1ccc(C#N)cc1-n1c(=N)n(C)c2cnc3ccc(C#Cc4ccccc4)cc3c21 [Compound 154, 3-(2-imino-3-methyl-8-(phenylethynyl)-2,3-dihydro-H-imidazo[4,5-c]quinolin-1-yl)-4-methylbenzonitrile]	1.4 µg/mL (≈ 3.39 µM)	1.75 µM	> 30 min	–
Cc1ccc(C#N)cc1-n1c(=N)n(Cc2ccccc2)c2cnc3ccc(-c4ccc(Cl)cc4)cc3c21 [Compound 94, 3-(3-benzyl-8-(4-chlorophenyl)-2-imino-2,3-dihydro-1H-imidazo[4,5-c]quinolin-1-yl)-4-methylbenzonitrile]	< 1 µg/mL	9.17 µM	> 30 min	–
Cn1c(=N)n(-c2ccnc(N)n2)c2c3cc(-c4ccc(Cl)cc4)ccc3ncc21	–	–	–	solubility (Solubility pH 7.4; Table 3): 3.4 µg/mL (≈ 8.46 µM); EC50 ([1]; Table 3): 0.14 µM; half-life [2, 4]: > 30 min
Cc1cc(N2CCNC(C)C2)c(C#N)cc1-n1c(=N)n(C)c2cnc3ccc(-c4ccc(Cl)cc4)cc3c21 (stereo not drawn) [Compound 124, 5-(8-(4-chlorophenyl)-2-imino-3-methyl-2,3-dihydro-1H-imidazo[4,5-c]quinolin-1-yl)-4-methyl-2-(3-methylpiperazin-1-yl)benzonitrile]	1.9 µg/mL (≈ 3.64 µM)	0.217 µM	> 30 min	–
CCCCOC(=O)/N=c1\n(C)c2cnc3ccc(-c4ccc(Cl)cc4)cc3c2n1-c1cc(C#N)ccc1C [Compound 89, butyl (E)-(8-(4-chlorophenyl)-1-(5-cyano-2-methylphenyl)-3-methyl-1,3-dihydro-2H-imidazo[4,5-c]quinolin-2-ylidene)carbamate]	< 1 µg/mL	0.601 µM	6.2 min	–
Cc1ncncc1-n1c(=N)n(C)c2cnc3ccc(-c4ccc(Cl)c(OC(F)(F)F)c4)cc3c21	–	–	–	solubility (Solubility pH 7.4; Table 3): 16 µg/mL (≈ 33 µM); EC50 ([1]; Table 3): 0.158 µM; half-life [2, 4]: > 30 min

The remaining molecules from weak to strong by EC50 ([1]; Table 1), led by results:

solubility (Solubility pH 7.4; Table 1)	EC50 ([1]; Table 1)	half-life [2, 3]	Structure (SMILES)	other results
< 1 µg/mL	0.175 µM	> 30 min	Cc1cc(N2CCNCC2)c(C#N)cc1-n1c(=N)n(C)c2cnc3ccc(-c4ccc(Cl)cc4)cc3c21 [Compound 14, 5-(8-(4-chlorophenyl)-2-imino-3-methyl-2,3-dihydro-1H-imidazo[4,5-c]quinolin-1-yl)-4-methyl-2-(piperazin-1-yl)benzonitrile]	–
> 42 µg/mL	0.163 µM	> 30 min	COc1ccc(-c2ccc3ncc4c(c3c2)n(-c2cc(C#N)ccc2C)c(=N)n4C)cn1 [Compound 103, 3-(2-imino-8-(6-methoxypyridin-3-yl)-3-methyl-2,3-dihydro-1H-imidazo[4,5-c]quinolin-1-yl)-4-methylbenzonitrile]	–
< 1 µg/mL	0.135 µM	> 30 min	Cc1cc(N2CCN(S(C)(=O)=O)CC2)c(C#N)cc1-n1c(=N)n(C)c2cnc3ccc(-c4ccc(Cl)cc4)cc3c21 [Compound 118, 5-(8-(4-chlorophenyl)-2-imino-3-methyl-2,3-dihydro-1H-imidazo[4,5-c]quinolin-1-yl)-4-methyl-2-(4-(methylsulfonyl)piperazin-1-yl)benzonitrile]	–
7.8 µg/mL (≈ 19 µM)	0.13 µM	> 30 min	Cn1c(=N)n(-c2cncc(C#N)c2)c2c3cc(-c4ccc(Cl)cc4)ccc3ncc21 [Compound 45, 5-(8-(4-chlorophenyl)-2-imino-3-methyl-2,3-dihydro-1H-imidazo[4,5-c]quinolin-1-yl)nicotinonitrile]	–
> 55 µg/mL	0.125 µM	> 30 min	Cc1cc(N2CCN(CCO)CC2)c(C#N)cc1-n1c(=N)n(C)c2cnc3ccc(-c4ccc(Cl)cc4)cc3c21 [Compound 115, 5-(8-(4-chlorophenyl)-2-imino-3-methyl-2,3-dihydro-1H-imidazo[4,5-c]quinolin-1-yl)-2-(4-(2-hydroxyethyl)piperazin-1-yl)-4-methylbenzonitrile]	–
< 1 µg/mL	0.0886 µM	> 30 min	Cc1cc(NS(C)(=O)=O)c(C#N)cc1-n1c(=N)n(C)c2cnc3ccc(-c4ccc(Cl)cc4)cc3c21 [Compound 123, N-(4-(8-(4-chlorophenyl)-2-imino-3-methyl-2,3-dihydro-1H-imidazo[4,5-c]quinolin-1-yl)-2-cyano-5-methylphenyl)methanesulfonamide]	–
3.5 µg/mL (≈ 8.24 µM)	0.0623 µM	> 30 min	Cc1ncc(C#N)cc1-n1c(=N)n(C)c2cnc3ccc(-c4ccc(Cl)cc4)cc3c21 [Compound 22, 5-(8-(4-chlorophenyl)-2-imino-3-methyl-2,3-dihydro-1H-imidazo[4,5-c]quinolin-1-yl)-6-methylnicotinonitrile]	–
> 43 µg/mL	0.0308 µM	> 30 min	Cc1ccc(C#N)cc1-n1c(=N)n(C)c2cnc3ccc(-c4ccc(Cl)c(N)c4)cc3c21 [Compound 40, 3-(8-(3-amino-4-chlorophenyl)-2-imino-3-methyl-2,3-dihydro-1H-imidazo[4,5-c]quinolin-1-yl)-4-methylbenzonitrile]	–
< 1 µg/mL	0.00628 µM	> 30 min	Cc1ccc(C#N)cc1-n1/c(=N/S(C)(=O)=O)n(C)c2cnc3ccc(-c4ccc(Cl)cc4)cc3c21 [Compound 20, (E)-N-(8-(4-chlorophenyl)-1-(5-cyano-2-methylphenyl)-3-methyl-1,3-dihydro-2H-imidazo[4,5-c]quinolin-2-ylidene)methanesulfonamide]	–

Reference: US20210188843A1, “QUINOLINE COMPOUNDS AND THEIR PREPARATION AND USE AS ANTIMALARIAL AGENTS” (The United States of America,as represented by the …, priority 2018, published 2021)
